Activity calls are given as the source filed them. The rule behind the calls is not given here.

For the data set, the system named is CCRIS mutagenicity, Ames/micronucleus/aberration tests. Put plainly: CCRIS mutagenicity studies.
Setting [1] is: Test System: AMES SALMONELLA TYPHIMURIUM, Strain/Indicator: TA100, Metabolic Activation: NONE, Method: STANDARD PLATE.
Setting [2] is: Test System: AMES SALMONELLA TYPHIMURIUM, Strain/Indicator: TA100, Metabolic Activation: S-9, Method: STANDARD PLATE.
[3] abbreviates: Test System: AMES SALMONELLA TYPHIMURIUM, Strain/Indicator: TA1537, Metabolic Activation: NONE, Method: STANDARD PLATE.
The mark [4] stands for this setting: Test System: AMES SALMONELLA TYPHIMURIUM, Strain/Indicator: TA1537, Metabolic Activation: S-9, Method: STANDARD PLATE.
Where [5] appears, read: Test System: AMES SALMONELLA TYPHIMURIUM, Strain/Indicator: TA98, Metabolic Activation: NONE, Method: PREINCUBATION
[6] abbreviates: Test System: AMES SALMONELLA TYPHIMURIUM, Strain/Indicator: TA98, Metabolic Activation: NONE, Method: STANDARD PLATE.
Setting [7] is: Test System: AMES SALMONELLA TYPHIMURIUM, Strain/Indicator: TA98, Metabolic Activation: RAT, LIVER, S-9, AROCLOR 1254, Method: STANDARD PLATE.
Where [8] appears, read: Test System: AMES SALMONELLA TYPHIMURIUM, Strain/Indicator: TA100, Metabolic Activation: NONE, Method: PREINCUBATION
Where [9] appears, read: Test System: AMES SALMONELLA TYPHIMURIUM, Strain/Indicator: TA100, Metabolic Activation: RAT, LIVER, S-9, AROCLOR 1254, Method: STANDARD PLATE.
Setting [10] is: Test System: AMES SALMONELLA TYPHIMURIUM, Strain/Indicator: TA1535, Metabolic Activation: NONE, Method: PREINCUBATION
[11] abbreviates: Test System: AMES SALMONELLA TYPHIMURIUM, Strain/Indicator: TA1537, Metabolic Activation: NONE, Method: PREINCUBATION

Regarding `O=[N+]([O-])c1ccc2c(ccc3c4ccccc4ccc23)c1`, the mutagenic call was “active; positive” (Test System: AMES SALMONELLA TYPHIMURIUM, Strain/Indicator: TA98(1,8-DNP6), Metabolic Activation: NONE); “active; positive” (Test System: AMES SALMONELLA TYPHIMURIUM, Strain/Indicator: TA98(1,8-DNP6), Metabolic Activation: RAT, LIVER, S-9, AROCLOR 1254); “active; positive” (Test System: AMES SALMONELLA TYPHIMURIUM, Strain/Indicator: TA98(NR), Metabolic Activation: NONE); “active; positive” (Test System: AMES SALMONELLA TYPHIMURIUM, Strain/Indicator: TA98(NR), Metabolic Activation: RAT, LIVER, S-9, AROCLOR 1254); “active; positive” (Test System: AMES SALMONELLA TYPHIMURIUM, Strain/Indicator: TA98, Metabolic Activation: NONE); “active; positive” (Test System: AMES SALMONELLA TYPHIMURIUM, Strain/Indicator: TA98, Metabolic Activation: RAT, LIVER, S-9, AROCLOR 1254). The mutagenic call is “active; positive” (Test System: AMES SALMONELLA TYPHIMURIUM, Strain/Indicator: TA100(NR), Metabolic Activation: NONE); “active; positive” (Test System: AMES SALMONELLA TYPHIMURIUM, Strain/Indicator: TA100(NR), Metabolic Activation: RAT, LIVER, S-9, AROCLOR 1254); “active; positive” (Test System: AMES SALMONELLA TYPHIMURIUM, Strain/Indicator: TA100, Metabolic Activation: NONE); “active; positive” (Test System: AMES SALMONELLA TYPHIMURIUM, Strain/Indicator: TA100, Metabolic Activation: RAT, LIVER, S-9, AROCLOR 1254); “active; positive” (Test System: AMES SALMONELLA TYPHIMURIUM, Strain/Indicator: TA104, Metabolic Activation: NONE); “active; positive” (Test System: AMES SALMONELLA TYPHIMURIUM, Strain/Indicator: TA104, Metabolic Activation: RAT, LIVER, S-9, AROCLOR 1254).
With `CC(C)CC(=O)Nc1snc2ccc(Cl)cc12`, the mutagenic call is “inactive; negative” under setting [1], “inactive; negative” under setting [2], “inactive; negative” under setting [3] and “inactive; negative” under setting [4].
Take `O=C(O)/C=C/c1ccccc1[N+](=O)[O-]`: the mutagenic call was “inactive; negative” under setting [5]; “inactive; negative” under setting [6]; “inactive; negative” under setting [7]; “inactive; negative” (Test System: AMES SALMONELLA TYPHIMURIUM, Strain/Indicator: TA98, Method: PREINCUBATION); “inactive; negative” under setting [8]; “inactive; negative” under setting [1]. Also, the mutagenic call (Test System: AMES SALMONELLA TYPHIMURIUM, Strain/Indicator: TA100, Metabolic Activation: RAT, LIVER, S-9, AROCLOR 1254, Method: PREINCUBATION) was “inactive; negative”; the mutagenic call under setting [9] is “inactive; negative”; the mutagenic call (Test System: AMES SALMONELLA TYPHIMURIUM, Strain/Indicator: TA100, Method: PREINCUBATION) was “inactive; negative”; the mutagenic call under setting [10] is “inactive; negative”; the mutagenic call (Test System: AMES SALMONELLA TYPHIMURIUM, Strain/Indicator: TA1535, Method: PREINCUBATION) is “inactive; negative”; the mutagenic call under setting [11] was “inactive; negative”. Moreover, the mutagenic call (Test System: AMES SALMONELLA TYPHIMURIUM, Strain/Indicator: TA1537, Method: PREINCUBATION) was “inactive; negative”; the mutagenic call (Test System: AMES SALMONELLA TYPHIMURIUM, Strain/Indicator: TA1538, Metabolic Activation: NONE, Method: PREINCUBATION) was “inactive; negative”; the mutagenic call (Test System: AMES SALMONELLA TYPHIMURIUM, Strain/Indicator: TA1538, Method: PREINCUBATION) was “inactive; negative”.
Take `CCCNc1snc2ccccc12`: the mutagenic call was “inactive; negative” under setting [6]; “inactive; negative” (Test System: AMES SALMONELLA TYPHIMURIUM, Strain/Indicator: TA98, Metabolic Activation: S-9, Method: STANDARD PLATE); “inactive; negative” under setting [1]; “inactive; negative” under setting [2]; “inactive; negative” (Test System: AMES SALMONELLA TYPHIMURIUM, Strain/Indicator: TA1535, Metabolic Activation: NONE, Method: STANDARD PLATE); “inactive; negative” (Test System: AMES SALMONELLA TYPHIMURIUM, Strain/Indicator: TA1535, Metabolic Activation: S-9, Method: STANDARD PLATE). The mutagenic call under setting [3] is “inactive; negative” and the mutagenic call under setting [4] is “inactive; negative”.
`CCOC(=O)c1[nH]c2ccccc2c1N=Cc1ccc(O)cc1`: the mutagenic call by setting is: (Test System: AMES SALMONELLA TYPHIMURIUM, Strain/Indicator: TA97, Metabolic Activation: NONE, Method: STANDARD PLATE) “active; positive”; (Test System: AMES SALMONELLA TYPHIMURIUM, Strain/Indicator: TA97, Metabolic Activation: RAT, LIVER, S-9, AROCLOR 1254, Method: STANDARD PLATE) “inactive; negative”; under setting [6], “inactive; negative”; under setting [7], “inactive; negative”; under setting [1], “inactive; negative”; under setting [9], “inactive; negative”. The mutagenic call is “inactive; negative” (Test System: AMES SALMONELLA TYPHIMURIUM, Strain/Indicator: TA102, Metabolic Activation: NONE, Method: STANDARD PLATE) and “inactive; negative” (Test System: AMES SALMONELLA TYPHIMURIUM, Strain/Indicator: TA102, Metabolic Activation: RAT, LIVER, S-9, AROCLOR 1254, Method: STANDARD PLATE).
For the compound `CC[C@H](C)[C@@H]1NC(=O)[C@H](CCCNC(=N)N)NC(=O)[C@H](CC(=O)O)NC(=O)[C@H](CCSC)NC(=O)[C@H](CCCNC(=N)N)NC(=O)CNC(=O)CNC(=O)[C@H](Cc2ccccc2)NC(=O)[C@@H](NC(=O)[C@H](CO)NC(=O)[C@H](CO)NC(=O)[C@H](CCCNC(=N)N)NC(=O)[C@H](CCCNC(=N)N)NC(=O)[C@H](CC(C)C)NC(=O)[C@@H](N)CO)CSSC[C@@H](C(=O)N[C@@H](CC(N)=O)C(=O)N[C@@H](CO)C(=O)N[C@@H](Cc2ccccc2)C(=O)N[C@@H](CCCNC(=N)N)C(=O)N[C@@H](Cc2ccc(O)cc2)C(=O)O)NC(=O)CNC(=O)[C@H](CC(C)C)NC(=O)CNC(=O)[C@H](CO)NC(=O)[C@H](CCC(N)=O)NC(=O)[C@H](C)NC(=O)CNC1=O`, the mutagenic call is, setting by setting: under setting [5], “inactive; negative”; (Test System: AMES SALMONELLA TYPHIMURIUM, Strain/Indicator: TA98, Metabolic Activation: S-9, Method: PREINCUBATION) “inactive; negative”; under setting [8], “inactive; negative”; (Test System: AMES SALMONELLA TYPHIMURIUM, Strain/Indicator: TA100, Metabolic Activation: S-9, Method: PREINCUBATION) “inactive; negative”; under setting [10], “inactive; negative”; (Test System: AMES SALMONELLA TYPHIMURIUM, Strain/Indicator: TA1535, Metabolic Activation: S-9, Method: PREINCUBATION) “inactive; negative”. The mutagenic call was “inactive; negative” under setting [11]; “inactive; negative” (Test System: AMES SALMONELLA TYPHIMURIUM, Strain/Indicator: TA1537, Metabolic Activation: S-9, Method: PREINCUBATION); “inactive; negative” (Test System: E. COLI, Strain/Indicator: WP2 UVRA, Metabolic Activation: NONE, Method: PREINCUBATION); “inactive; negative” (Test System: E. COLI, Strain/Indicator: WP2 UVRA, Metabolic Activation: S-9, Method: PREINCUBATION).

These data come from PubChem BioAssay AID1259407 (Chemical Carcinogenesis Research Information System (CCRIS), 2018).
